Where two headings read alike, the source gives them in different places.
Tests used:
[1] = target: T1, BRD4-NanoLuc (Homo sapiens, UniProt O60885); assay: NanoBRET target engagement assay, live and permeabilized HEK293 cells (BRD4); type: cell-based; details: for IC50: BRD4 NanoBRET TE
T1 construct: expressed in transfected cells; host or cells: HEK293
Procedure: We employed a NanoBRET-based target engagement (TE) assay as reported earlier^7 for evaluating PROTACs relative permeability. In summary, live and permeabilized HEK293 cells with SMARCA2 or BRD4-NanoLuc were used for measuring IC50 values of different PROTACs. The relative shift in the IC50 was evaluated as relative binding affinity (RBA) by taking the ratio of IC50 values of live and permeabilized cells. Availability index (AI), which is a surrogate for permeability can be calculated by taking a ratio of RBA of compounds to permeable benchmark molecules.
Relative Binding Affinity (RBA) = Live-cell TE IC50 / Permeabilized-cell TE IC50
Availability Index (AI) = RBAtest cmpd / RBApermeable benchmark
Availability Index (AI) greater than one is indicative of reduced permeability compared to the benchmark.

[2] = target: T2, BRD4 (Homo sapiens, UniProt O60885); assay: BRD4 degradation, MSD assay, dose response; type: cell-based; set-up: AUC (area under the dose-response curve): unit not given beside the values; details: A375 cells
T2 construct: endogenous in cells; host or cells: A375
Procedure: (§1) A375 cells were treated with SMARCA2 or BRD4 degraders for 2 h (4 h for BRD4) and generated lysates. SMARCA2 or BRD4 protein was measured with a variation of a sandwich ELISA that was assembled from commercially available antibodies as well as reagents and instrumentation procured from Meso Scale Discovery (MSD). Degradation parameter, DC50, is not suitable for PROTACs that induce partial/incomplete DR curves at a fixed time point; maximum drop in target protein level (Dmax) >>0. Conversely, the area under the curve (AUC) can be calculated as a degradation activity parameter for any DR curve, and it encompasses both the degradation potency (i.e., DC50) and efficacy (i.e., Dmax) of PROTACs.
(§2) A 1:3 compound dose-response titration was diluted in growth media (1:20), added to appropriate wells of a cell culture plate (1:10) and then assay plates were incubated at 37 °C, 5% CO2.
(§3) Plates were washed with 300 µL per well MSD wash buffer (MSD R61TX-1) between each step. Following the last incubation, plates were washed with MSD wash buffer then 150 µL of MSD read buffer (MSD R92TC-2) was added to each well. Plates were immediately read on a MSD plate reader (MSD Sector Imager 6000).
(§4) MSD electrochemiluminescence signals were subtracted by the average background signal from wells with lysis buffer alone. Normalized MSD values (POC) for individual compound treated wells were acquired by dividing background-subtracted assay signal by signal from vehicle control wells (cells + 0.1% DMSO) and multiplying by 100. This POC data was graphed using a nonlinear regression curve fit xy analysis and a log(inhibitor) vs response —variable slope (four parameter) model for dose response curves (Graphpad Prism 9, San Diego, CA, USA). To calculate area under the curve, all points on the curve were connected and vertical lines were drawn from each point down to y = 0, generating a series of trapezoids. The area of each trapezoid was determined using the equation A = (1/2)(h)(b1 + b2), where h = 1 (distance between points), b1 = POC of the first point and b2 = POC of the second point. The sum of all trapezoids provides an approximate area under the curve (AUC). For half-life (t1/2) determination in time course studies, a one-phase decay model was used for curve fitting and the time at which the curve crossed 50 POC was determined through interpolation (Graphpad Prism 9, San Diego, CA, USA).

[3] = target: T2, BRD4; assay: BRD4 degradation time course in A375 cells (MSD); type: cell-based; details: single concentration at or near maximal activity
From the text: (§5) To measure the rate of protein degradation, we treated A375 cells with a single concentration of each PROTAC and measured the decrease in target abundance over time as shown in Figs. 4b and5b.
as §4

[4] = target: T3, VHL/EloB/EloC (VBC) (Homo sapiens, UniProt P40337); assay: SPR binary binding of PROTAC to VBC-functionalized surface
T3 construct: VHL (54-213), ElonginB (17-112) ElonginC (1-104); made in house
Procedure: (§6) SPR experiments were performed on a Biacore 8 K or T200 instrument (Cytiva). […] The running buffer during immobilization was PBS with 0.005% P20. Either high-density (3000-4000 RU) or low-density (300-400 RU) VBC-functionalized surfaces were created, followed by equilibration in the running buffer for 3 h.
PROTACs (10 mM stocks in 100% DMSO) were diluted to 400 nM in a running buffer (20 mM Tris pH 7.5, 200 mM NaCl, 0.02% P20). This stock solution was then serially diluted in the running buffer containing final 2% DMSO. […] For SMARCA2 analysis, biotinylated proteins were introduced on a Series S streptavidin (SA) sensor chip at high-density (3000-4000 RU).
(§7) Raw sensorgrams were processed by performing double reference subtraction, solvent correction, and analysis was done using Biacore Insight Evaluation Software. Kinetic analysis was performed by fitting data to a 1:1 Langmuir interaction model and a steady-state affinity model was used to evaluate equilibrium binding affinity.

[5] = target: T4, VBC / BRD4^BD1 ternary complex (Homo sapiens, UniProt O60885+P40337); assay: SPR ternary complex binding, VBC surface with preformed PROTAC/BRD4 BD1 complex
T4 construct: VHL (54-213), ElonginB (17-112) ElonginC (1-104); BRD4 (44-168); His6 (N, cleaved yes); made in house
Procedure: as §6
(§8) PROTACs (10 mM in 100% DMSO) were initially prepared at 200 nM in a running buffer (20 mM Tris pH 8.0, 250 mM NaCl, 1 mM TCEP, 0.01% P20, 0.2 mg/ml BSA) with a concentration of 2% DMSO. This solution was mixed at 1:1 ratio with a solution of 5 μM of the SMARCA2 or BRD4 bromodomain protein in the running buffer. […] For ternary experiments, solutions were injected sequentially in single-cycle kinetic format without regeneration (contact time 60 s, flow rate 80 μL/min, dissociation time 300 s) using a stabilization period of 60 s and syringe wash (50% DMSO) between injections onto a low-density VBC-functionalized surface.
as §7

[6] = target: T5, VBC / BRD4^BD2 ternary complex (Homo sapiens, UniProt O60885+P40337); assay: SPR ternary complex binding, VBC surface with preformed PROTAC/BRD4 BD2 complex
T5 construct: VHL (54-213), ElonginB (17-112) ElonginC (1-104); ternary complex formation with both bromodomains, BRD4^BD1 and BRD4^BD2, independently; His6 (N); made in house
Procedure: as §6, §8, §7

[7] = target: T6, BRD4^BD2 (Homo sapiens, UniProt O60885); assay: SPR binary binding of PROTAC to BRD4^BD2-functionalized surface; details: 1:1 Langmuir binding model, SD N=2
T6 construct: ternary complex formation with both bromodomains, BRD4^BD1 and BRD4^BD2, independently; made in house

[8] = target: T7, SMARCA2 (Homo sapiens, UniProt P51531); assay: SMARCA2 degradation time course in A375 cells (MSD); type: cell-based; details: single concentration at or near maximal activity
T7 construct: endogenous in cells; host or cells: A375
From the text: as §5, with “This characteristic has been described as cooperativity (α > 1) and likely results from favorable PPIs present in the ternary complex. […] To” for “To”
MSD electrochemiluminescence signals were subtracted by the average background signal from wells with lysis buffer alone. Normalized MSD values (POC) for individual compound treated wells were acquired by dividing background-subtracted assay signal by signal from vehicle control wells (cells + 0.1% DMSO) and multiplying by 100. This POC data was graphed using a nonlinear regression curve fit xy analysis and a log(inhibitor) vs response —variable slope (four parameter) model for dose response curves (Graphpad Prism 9, San Diego, CA, USA). To calculate area under the curve, all points on the curve were connected and vertical lines were drawn from each point down to y = 0, generating a series of trapezoids. The area of each trapezoid was determined using the equation A = (1/2)(h)(b1 + b2), where h = 1 (distance between points), b1 = POC of the first point and b2 = POC of the second point. The sum of all trapezoids provides an approximate area under the curve (AUC). For half-life (t1/2) determination in time course studies, a one-phase decay model was used for curve fitting and the time at which the curve crossed 50 POC was determined through interpolation (Graphpad Prism 9, San Diego, CA, USA). Additionally initial rate of degradation was determined by multiplying 100 with rate constant (τ = 0.693/t1/2).

[9] = target: T8, SMARCA2^BD (Homo sapiens, UniProt P51531); assay: SPR binary binding of PROTAC to SMARCA2-functionalized surface; details: 1:1 Langmuir binding model, SEM N=3 or SD N=2, read-out: KTP (binary affinity PROTAC / SMARCA2)
T8 construct: SMARCA2^BD 1373–1511 ∆1400–1417; made in house
Procedure: PROTACs (10 mM stocks in 100% DMSO) were diluted to 400 nM in a running buffer (20 mM Tris pH 7.5, 200 mM NaCl, 0.02% P20). This stock solution was then serially diluted in the running buffer containing final 2% DMSO. Solutions were injected in multi-cycle kinetic format without regeneration (contact time 60 s, flow rate 80 μL/min, dissociation time 120 s) using a stabilization period of 30 s and syringe wash (50% DMSO) between injections onto a high-density VBC-functionalized surface. For SMARCA2 analysis, biotinylated proteins were introduced on a Series S streptavidin (SA) sensor chip at high-density (3000-4000 RU).
as §7

[10] = target: T9, VBC / SMARCA2^BD ternary complex (Homo sapiens, UniProt P40337+P51531); assay: SPR ternary complex binding, VBC surface with preformed PROTAC/SMARCA2 bromodomain complex
T9 construct: VHL (54-213), ElonginB (17-112) ElonginC (1-104); SMARCA2^BD 1373–1511 ∆1400–1417; His6 (N, cleaved yes); made in house
Procedure: as §6
PROTACs (10 mM in 100% DMSO) were initially prepared at 200 nM in a running buffer (20 mM Tris pH 8.0, 250 mM NaCl, 1 mM TCEP, 0.01% P20, 0.2 mg/ml BSA) with a concentration of 2% DMSO. This solution was mixed at 1:1 ratio with a solution of 5 μM of the SMARCA2 or BRD4 bromodomain protein in the running buffer. This complex was then serially diluted in the running buffer containing 2.5 μM SMARCA2 or BRD4 and 2% DMSO (5-point five-fold serial dilution). For ternary experiments, solutions were injected sequentially in single-cycle kinetic format without regeneration (contact time 60 s, flow rate 80 μL/min, dissociation time 300 s) using a stabilization period of 60 s and syringe wash (50% DMSO) between injections onto a low-density VBC-functionalized surface.
as §7

[11] = target: T7, SMARCA2; assay: SMARCA2 degradation, MSD assay, dose response; type: cell-based; set-up: key to AUC (area under the dose-response curve): sum of trapezoids of POC vs dose points, h = 1
Procedure: as §1, §2, §3, §4

[12] = SPR, VHL, PROTAC, error SEM, N = 3, read-out: KLPT (ternary complex binding affinity)

Cc1ncsc1-c1ccc(CNC(=O)[C@@H]2C[C@@H](O)CN2C(=O)[C@@H](NC(=O)COCCOCc2cn(CCNC(=O)C[C@@H]3N=C(c4ccc(Cl)cc4)c4c(sc(C)c4C)-n4c(C)nnc43)nn2)C(C)(C)C)cc1 [Compound 13, (2S,4R)-1-((S)-2-(2-(2-((1-(2-(2-((S)-4-(4-chlorophenyl)-2,3,9-trimethyl-6H-thieno[3,2-f][1,2,4]triazolo[4,3-a][1,4]diazepin-6-yl)acetamido)ethyl)-1H-1,2,3-triazol-4-yl)methoxy)ethoxy)acetamido)-3,3-dimethylbutanoyl)-4-hydroxy-N-(4-(4-methylthiazol-5-yl)benzyl)pyrrolidine-2-carboxamide]
Availability Index ([1]; RBA test cmpd / RBA of JQ1 benchmark, surrogate for permeability): 73.87
IC50 ([1]; live HEK293 cells, read-out: Live-Cell TE): 7270 nM
IC50 ([1]; permeabilized HEK293 cells, read-out: Permeabilized-Cell TE): 100 nM
Dmax ([2]; A-375, BRD4 degraded, MSD assay, 4 h timepoint): 78%
AUC (area under the dose-response curve) ([2]; BRD4 MSD assay, 4 h): 309
DC50 ([2]; BRD4 degradation, MSD assay, 4 h timepoint): 726 nM
Initial Degradation Rate [3]: 0.76 %/min
Kd [4]: 17 ± 2 nM
α (cooperativity, KLP/KLPT) [5]: 0.6
Kd [5, 12]: 29 ± 3 nM
α (cooperativity, KLP/KLPT) [6]: 1.7
Kd [6, 12]: 10 ± 2 nM
Kd [7]: 11.7 ± 0.9 nM

Cc1ncsc1-c1ccc([C@H](C)NC(=O)[C@@H]2C[C@@H](O)CN2C(=O)[C@@H](NC(=O)c2cccc(N3CCN(c4nc(-c5ccccc5O)nnc4N)CC3)n2)C(C)(C)C)cc1 [Compound 9, 6-(4-(6-Amino-3-(2-hydroxyphenyl)-1,2,4-triazin-5-yl)piperazin-1-yl)-N-((S)-1-((2S,4R)-4-hydroxy-2-(((S)-1-(4-(4-methylthiazol-5-yl)phenyl)ethyl)carbamoyl)pyrrolidin-1-yl)-3,3-dimethyl-1-oxobutan-2-yl)picolinamide]
Initial Degradation Rate [8]: 0.98 %/min
Kd [9]: 294 ± 33 nM
Kd ([4]; SPR, error SEM, N = 3, read-out: KLP (binary binding affinity between E3 ligase VHL and PROTAC)): 25 ± 4 nM
α (cooperativity, KLP/KLPT) [10]: 0.32
Kd [10, 12]: 77 ± 8 nM
SMARCA2 degradation ([11]; 2 h MSD assay): ~ 30%
Dmax ([11]; A-375, SMARCA2 degraded, MSD assay, A375 cells, 2 h timepoint): 74%
AUC (area under the dose-response curve) ([11]; SMARCA2 MSD assay, A375 cells, 2 h): 85
DC50 ([11]; SMARCA2 degradation, MSD assay, A375 cells, 2 h timepoint): 372 nM
